{"source": "patent US8609432B2", "about": "“Method and kit for detection of autoimmune chronic urticaria” (priority 2005, dated 2013)", "key": {"[1]": {"system": "basophils (CD203c/IgE positive cells) in donor whole blood", "experiment": "Measurement of CD203c surface expression on donor basophils by flow cytometry", "assay_type": "cell-based, human", "conditions": "positive controls, donor heparinized whole blood incubated 10 minutes at 37° C.; above buffer baseline; mean ±SEM, n=4", "experimental": "Whole blood from seven normal individuals was screened and one donor was identified based on the marked upregulation of CD203c on basophils (CD203c/IgE positive cells) in response to fMLP and anti-FcεRIα antibody.\nThe test was carried out on heparinized blood within 3-4 hours after drawing the donor's blood. Two hundred μL aliquots of the donor's heparinized whole blood were incubated for 10 minutes at 37° C. with 40 μL of sera from CU patients, normal controls, or IgG depleted sera. For controls, 40 μL basophil stimulation buffer (20 mM HEPES, 125 mM NaCl, 5 mM KCl, 2.5 mM CaCl2, 1 mM MgCl2, 0.5 mM glucose, and 0.1% BSA, pH 7.4) was added to 200 μL of donor's blood and used as the negative control while 40 μL of […] f-Met-Leu-Phe (fMLP, Sigma, St. Louis, Mo.) and 40 μL of a 1:50 dilution of anti-FcεRIα receptor antibody (Upstate, Charlottesville, Va.) in Ca++ and Mg++ free phosphate buffered saline (PBS) were used as positive controls. […] The cells were then analyzed on a FACSCalibur flow cytometer (Becton Dickinson, San Jose, Calif.).\nBasophils from whole blood were identified by the presence of CD203c on high expressing IgE positive cells (FIGS. 1A and 1B). The data are expressed as the mean fluorescence intensity or the percentage of CD203c expression. […] This was determined by defining an M1 region on the histogram analysis (FIG. 1C)."}, "[2]": {"system": "basophils, CD203c expression", "conditions": "cited from earlier work"}, "[3]": {"system": "basophils, CD63 expression", "conditions": "cited from earlier work"}}}
{"compound": "f-Met-Leu-Phe [fMLP]", "values": [{"measurement": "mean percent basophil CD203c expression", "setting": "[1]", "value": "34.5%±14.6"}]}
{"compound": "CCCCC[C@H](O)/C=C/[C@H]1C(=O)C[C@H](O)[C@@H]1C/C=C\\CCCC(=O)O", "note": "[PGD2]", "values": [{"measurement": "induction of CD203c expression", "setting": "[2]", "value": "strong inducer"}, {"measurement": "stimulation of CD63 expression", "setting": "[3]", "value": "does not stimulate"}]}
